Data published in US20090042987A1, “TREATMENT OF NEUROPATHIC PAIN” (priority 2007, published 2009).
“Also recorded” adds a separate entry of the source.

Columns and labels:
Assay type in all cases: in vivo, rat
STZ-diabetic rats [1] = assay: von Frey paw withdrawal thresholds, STZ-diabetic rats given multiple dosing regimens (washout protocol), Example 1; details: gabapentin 100 mg/kg s.c.
Protocol: (§1) Experimental Animals Ethical approval for this study was obtained from the Animal Experimentation Ethics Committee of The University of Queensland. Adult male Sprague-Dawley (SD) rats (222±4 g) were used for this study. Rats were housed in a temperature controlled room (21+2.0 C) with a 12/12 hour light/dark cycle. Food and water were available ad libitum. Initiation of drug administration occurred at 8-11 weeks post-STZ administration for rats in Experiment 1 (PCT-001) and at 10-12 weeks post-STZ administration for rats in Experiment 2 (PCT-007).
(§2) Test Article Tranilast was supplied by the Sponsor and stored at −4° C. until use. Gabapentin (100 mg/kg, dissolved in water for injection) was utilized as the positive control for this study.
(§3) Test Article and Vehicle Preparation Test article formulations were prepared freshly on the day of administration by weighing the appropriate amount of bulk powder and suspending it in the required volume of vehicle. Carboxymethyl cellulose ((CMC) 0.5% in water for injection) was utilized as the vehicle for this study.
(§4) Test Article Administration. […] The maximum oral gavage volume administered in this study was […]. 4.4
(§5) STZ-Diabetic Rat Model of Painful Diabetic Neuropathy. Painful diabetic neuropathy is a common long-term complication of diabetes in humans that develops as a result of a sustained biochemical nerve injury. […] Following the induction of diabetes with intravenous STZ at 70-80 mg/kg, it generally takes 6-8 wks for tactile allodynia, the defining symptom of PDN, to fully develop in both rat hindpaws.
(§6) Induction of STZ-Diabetes in Rats. On day 0, rats were anaesthetized with 3% isoflurane:97% O2 and a short polyethylene cannula (0.5 mm ID, 0.8 mm OD) was inserted into the jugular vein to facilitate the intravenous (i.v.) administration of a single dose of streptozotocin (STZ: 70-80 mg/kg). After STZ injection, the cannula was removed and the jugular vein was tied off and the wound was closed. Rats received subcutaneous benzylpenicillin (60 mg) prior to surgery to prevent infection and were kept warm during surgical recovery. Rats were housed singly prior to further experimentation and were monitored daily from the time of STZ administration with regard to general health and well-being.
(§7) Von Frey Assessment of Paw Withdrawal Thresholds. Calibrated von Frey filaments were used to determine the lowest mechanical threshold required to evoke a brisk paw withdrawal reflex in the rat hindpaws. Briefly, rats were transferred individually to wire mesh testing cages (20 cm×20 cm×20 cm) and allowed to acclimatize for approximately 10-20 min prior to von Frey testing. Commencing with the von Frey filament that produced the 6 g force, the filament was applied to the plantar surface of the hindpaw until the filament buckled slightly. Absence of a response after 3 s prompted use of the next filament of increasing weight. A withdrawal response within 3 s prompted use of the next filament of decreasing weight. Filaments used produced buckling weights of 2, 4, 6, 8, 10, 12, 14, 16, 18 and 20 g. […] Tactile allodynia is regarded as being fully developed when von Frey PWTs in the injured hindpaws are <6 g.
Restoring von-Frey PWTs in the hindpaws from <6 g to pre-STZ surgery levels (12±2 g) is the treatment goal representing full reversal of tactile allodynia. If drug treatment increases PWTs above pre-surgical baseline values (i.e. >12±2 g), such a response is classified as antinociception. Before administration of STZ, baseline von Frey measurements were assessed. Following STZ administration, baseline PWTs were assessed in the hindpaws at week 8-11 to confirm the development of diabetes-induced tactile allodynia. […]

[2] = tested on: drug-naïve STZ-diabetic rats; assay: von Frey paw withdrawal thresholds, drug-naïve STZ-diabetic rats, Example 2
Protocol: as §1, §2, §3, §4, §5, §6, §7
Restoring von-Frey PWTs in the hindpaws from <6 g to pre-STZ surgery levels (12±2 g) is the treatment goal representing full reversal of tactile allodynia. If drug treatment increases PWTs above pre-surgical baseline values (i.e. >12±2 g), such a response is classified as antinociception. Before administration of STZ, baseline von Frey measurements were assessed. Following STZ administration, baseline PWTs were assessed in the hindpaws at week 8-11 to confirm the development of diabetes-induced tactile allodynia.
Dose-Response Curve for Tranilast in Drug-Naive STZ-Diabetic Rats. […]

STZ-diabetic rats [3] = assay: Behavioural observations / adverse effects in STZ-diabetic rats; details: gabapentin 100 mg/kg s.c., 7 consecutive twice-daily bolus doses
Source text: Behavioural Observations. STZ-diabetic rats were monitored for visible and audible signs of distress throughout the testing period. The visible signs of distress included behavioural changes such as complete immobility, movement with abnormal gait, agitation, aggression, wet dog shakes, excessive grooming, restlessness with constant movement, repeated sudden movements or staring.

[4] = gabapentin 100 mg/kg s.c., 7th twice-daily dose
[5] = gabapentin 100 mg/kg s.c., after 7th consecutive twice-daily dose

## NCC1(CC(=O)O)CCCCC1 [Gabapentin]
STZ-diabetic rats [1]; 7 consecutive twice-daily doses, multiple dosing regimens
  Relief of tactile (mechanical) allodynia in the hindpaws: significant relief of tactile (mechanical) allodynia
STZ-diabetic rats [1]; 7th twice-daily dose, 1 h post-dosing
  Mean (±SEM) PWT at the mean time of peak response: 11.0 (±1.0) g
STZ-diabetic rats [1]; 7th twice-daily dose, multiple dosing regimens
  Time of peak anti-allodynia post-dosing: 0.75 to 1.25 h
STZ-diabetic rats [1]; 7th twice-daily dose, pre-dose
  Mean (±SEM) PWT pre-dose: 4.5 (±0.5) g
[2]; gabapentin 100 mg/kg s.c. twice-daily
  Baseline PWT thresholds assessed prior to dose 1, 3, 5 and 7: not significantly different
[2]; gabapentin 100 mg/kg s.c. twice-daily, prior to dose 1
  Mean (±SEM) von Frey Paw Withdrawal threshold assessed prior to dose: 3.7 ± 0.6 g
[2]; gabapentin 100 mg/kg s.c. twice-daily, prior to dose 3
  Mean (±SEM) von Frey Paw Withdrawal threshold assessed prior to dose: 4.0 ± 0 g
[2]; gabapentin 100 mg/kg s.c. twice-daily, prior to dose 5
  Mean (±SEM) von Frey Paw Withdrawal threshold assessed prior to dose: 4.7 ± 0.5 g
[2]; gabapentin 100 mg/kg s.c. twice-daily, prior to dose 7
  Mean (±SEM) von Frey Paw Withdrawal threshold assessed prior to dose: 4.5 ± 0.4 g
[2]; gabapentin 100 mg/kg s.c. twice-daily, time 0 h (pre-dose)
  Mean (±SEM) von Frey Paw Withdrawal threshold following the 7th consecutive dose: 4.5 ± 0.2 g
[2]; gabapentin 100 mg/kg s.c. twice-daily, time 0 h (pre-dose), listed as gabapentin
  Mean (±SEM) von Frey Paw Withdrawal threshold following the 7th consecutive dose: 4.5 (±0.2) g
[2]; gabapentin 100 mg/kg s.c. twice-daily, time 0.15 h
  Mean (±SEM) von Frey Paw Withdrawal threshold following the 7th consecutive dose: 5.75 ± 0.2 g
[2]; gabapentin 100 mg/kg s.c. twice-daily, time 0.5 h
  Mean (±SEM) von Frey Paw Withdrawal threshold following the 7th consecutive dose: 6.25 ± 0.2 g
[2]; gabapentin 100 mg/kg s.c. twice-daily, time 0.75 h
  Mean (±SEM) von Frey Paw Withdrawal threshold following the 7th consecutive dose: 7.5 ± 0.6 g
[2]; gabapentin 100 mg/kg s.c. twice-daily, time 1 h
  Mean (±SEM) von Frey Paw Withdrawal threshold following the 7th consecutive dose: 8.5 ± 0.5 g
[2]; gabapentin 100 mg/kg s.c. twice-daily, time 1.25 h
  Mean (±SEM) von Frey Paw Withdrawal threshold following the 7th consecutive dose: 9.0 ± 1.0 g
[2]; gabapentin 100 mg/kg s.c. twice-daily, time 1.25 h, listed as gabapentin
  Mean (±SEM) von Frey Paw Withdrawal threshold following the 7th consecutive dose: 9.0 (±1.0) g
[2]; gabapentin 100 mg/kg s.c. twice-daily, time 1.5 h
  Mean (±SEM) von Frey Paw Withdrawal threshold following the 7th consecutive dose: 9.0 ± 0.7 g
[2]; gabapentin 100 mg/kg s.c. twice-daily, time 2 h
  Mean (±SEM) von Frey Paw Withdrawal threshold following the 7th consecutive dose: 7.0 ± 0.4 g
[2]; gabapentin 100 mg/kg s.c. twice-daily, time 3 h
  Mean (±SEM) von Frey Paw Withdrawal threshold following the 7th consecutive dose: 6.5 ± 0.3 g
[2]; gabapentin 100 mg/kg s.c., 7 consecutive twice-daily doses
  Relief of tactile allodynia in the hindpaws: significant relief of tactile allodynia
[2]; [4]
  Mean duration of action: > 3 h
  Time of peak anti-allodynia post-dosing: 1 to 1.5 h
[2]; [5]
  Mean (±SEM) AUC (area under the normalized PWT versus time curve): 8.3 ± 0.4
  Mean (±SEM) Peak response (PWT): 9.0 ± 1.0
[2]; gabapentin 100 mg/kg s.c., after 7th consecutive twice-daily dose, 100% MPR = full reversal of tactile allodynia
  Mean (±SEM) % MPR at peak: 75.8 ± 17.2%
[2]; gabapentin s.c. 100 mg/kg, 7th consecutive twice-daily dose
  % MPR at the time of peak effect compared with vehicle: significantly greater than that for vehicle
STZ-diabetic rats [3]
  Adverse (behavioural) effects: no discernible adverse effects; also recorded: did not produce discernible adverse behavioural effects
